The target of assay [1] is human orexin 2 receptor (Homo sapiens (Human), UniProt O43614). Kind of assay: Human orexin 2 receptor radioligand binding. Conditions: human orexin 2 receptor; averages of 2-20 runs; read-out: hOX2 Ki. An outline of the steps: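 Ki derived from one-site competition IC50 using predetermined Kd of [3H]-EMPA, triplicate points, 2-20 runs averaged. Binding done on homogenized HEK293 cells stably expressing human orexin 2 receptor, DMSO ≤0.1%, with 10 μM almorexant defining nonspecific binding; filtered, washed, scintillation counted.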

For assay [2], the target named is human orexin 1 receptor (Homo sapiens, UniProt O43613). The experiment in a line: Human orexin 1 receptor radioligand binding. As to conditions: human orexin 1 receptor; averages of 2-20 runs; read-out: hOX1 Ki. The essentials:
(§1)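 Ki values derive from one-site competition IC50s corrected with the radioligand's predetermined Kd, triplicates per run, averaged over 2-20 runs. Cell homogenates (rat or human OX1R) compete against [^3H]-thiazolyl-oxadiazolyl-pyrrolidine methanone in PBS; 10 μM almorexant sets nonspecific binding; scintillation counting after washing.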

Assay [3] addresses rat orexin 1 receptor (Rattus norvegicus, UniProt P56718). Kind of assay: Rat orexin 1 receptor radioligand binding. As to conditions: rat orexin 1 receptor; averages of 2-20 runs; read-out: rOX1 Ki. The essentials: as §1

For orientation: Ki means a measure of affinity in units of concentration, obtained from inhibition or displacement.

human orexin 2 receptor, sequence (O43614 whole entry): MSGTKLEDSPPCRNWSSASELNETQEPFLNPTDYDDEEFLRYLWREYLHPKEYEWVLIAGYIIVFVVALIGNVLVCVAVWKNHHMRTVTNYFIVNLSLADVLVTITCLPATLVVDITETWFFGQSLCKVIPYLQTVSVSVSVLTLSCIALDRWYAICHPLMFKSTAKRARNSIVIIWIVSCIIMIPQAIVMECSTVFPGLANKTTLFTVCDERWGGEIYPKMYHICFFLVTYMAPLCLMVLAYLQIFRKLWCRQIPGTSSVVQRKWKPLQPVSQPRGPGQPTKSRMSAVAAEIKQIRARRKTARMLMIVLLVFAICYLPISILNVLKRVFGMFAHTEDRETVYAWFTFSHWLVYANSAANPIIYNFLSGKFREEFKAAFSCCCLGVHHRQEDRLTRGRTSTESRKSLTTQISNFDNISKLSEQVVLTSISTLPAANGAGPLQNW

With `Cc1cnc(-n2nccn2)c(C(=O)N2C[C@H]3C[C@@H](Oc4ccc(C(F)(F)F)cn4)[C@@H]2C3)c1` [Example 88, (5-methyl-2-(2H-1,2,3-triazol-2-yl)pyridin-3-yl)((1S,4R,6R)-6-((5-(trifluoromethyl)pyridin-2-yl)oxy)-2-azabicyclo[2.2.1]heptan-2-yl)methanone], the figures for the inhibitory constant (Ki) in assay [1], in assay [2] and in assay [3] were over 10000 nM, 36 nM and 45 nM, respectively.
On to `O=C(c1cc(F)ccc1-c1ncccn1)N1C[C@H]2C[C@@H](Nc3ncc(C(F)(F)F)cn3)[C@@H]1C2` [Example 228, (5-fluoro-2-(pyrimidin-2-yl)phenyl)((1S,4S,6R)-6-((5-(trifluoromethyl)pyrimidin-2-yl)amino)-2-azabicyclo[2.2.1]heptan-2-yl)methanone], for which the inhibitory constant (Ki) in assay [1] stood at 544 nM; in assay [2], 9 nM; in assay [3] it was 11 nM.
For `O=C(c1c(F)cccc1-c1ncco1)N1C[C@H]2C[C@@H](Nc3ncc(C(F)(F)F)cn3)[C@@H]1C2` [Example 232, (2-fluoro-6-(oxazol-2-yl)phenyl)((1S,4S,6R)-6-((5-(trifluoromethyl)pyrimidin-2-yl)amino)-2-azabicyclo[2.2.1]heptan-2-yl)methanone], the Ki in assay [1] worked out at 1350 nM; in assay [2], 25 nM; in assay [3] it was 24 nM.
As to `O=C(c1c(F)cccc1-c1ncccn1)N1C[C@@H]2CC[C@H]1[C@H](Nc1cnc(C(F)(F)F)cn1)C2` [Example 279, (2-fluoro-6-(pyrimidin-2-yl)phenyl)((1S,4R,6R)-6-((5-(trifluoromethyl)pyrazin-2-yl)amino)-2-azabicyclo[2.2.2]octan-2-yl)methanone], the Ki stood at 177 nM in assay [1], 13 nM in assay [2] and 11 nM in assay [3].
As to `O=C(c1cccc(F)c1-c1ncccn1)N1C[C@H]2C[C@@H](Oc3ccc(Cl)cn3)[C@@H]1C2` [Example 115, ((1S,4R,6R)-6-((5-chloropyridin-2-yl)oxy)-2-azabicyclo[2.2.1]heptan-2-yl)(3-fluoro-2-(pyrimidin-2-yl)phenyl)methanone], the Ki in assay [1] amounted to 852 nM; in assay [2], 8 nM; in assay [3], 7 nM.
Take `O=C(c1ccccc1-n1nccn1)N1C[C@H]2C[C@@H](Oc3ncc(C(F)(F)F)cc3F)[C@@H]1C2` [Example 97, (2-(2H-1,2,3-triazol-2-yl)phenyl)((1S,4R,6R)-6-((3-fluoro-5-(trifluoromethyl)pyridin-2-yl)oxy)-2-azabicyclo[2.2.1]heptan-2-yl)methanone]: the Ki in assay [1] worked out at 1100 nM; in assay [2] it was 15 nM; in assay [3], 21 nM.
For the molecule `Cc1cnc(C(=O)N2C[C@H]3C[C@@H](Nc4ccc(C(F)(F)F)cn4)[C@@H]2C3)c(-c2ncccn2)c1` [Example 149, (5-methyl-3-(pyrimidin-2-yl)pyridin-2-yl)((1S,4S,6R)-6-((5-(trifluoromethyl)pyridin-2-yl)amino)-2-azabicyclo[2.2.1]heptan-2-yl)methanone], the Ki in assay [1] came out at 4600 nM; in assay [2] it was 7 nM; in assay [3], 14 nM.
As for `Cc1cnc(-c2ncccn2)c(C(=O)N2C[C@H]3C[C@@H](Nc4ccc(C(F)(F)F)cn4)[C@@H]2C3)c1` [Example 151, (5-methyl-2-(pyrimidin-2-yl)pyridin-3-yl)((1S,4S,6R)-6-((5-(trifluoromethyl)pyridin-2-yl)amino)-2-azabicyclo[2.2.1]heptan-2-yl)methanone], the values for the Ki in assay [1], in assay [2] and in assay [3] were 5100 nM, 47 nM and 21 nM, respectively.
Turning to `O=C(c1cccc(F)c1-c1ncccn1)N1C[C@@H]2CC[C@H]1[C@H](Oc1ccc(Cl)cn1)C2` [Example 271, ((1S,4R,6R)-6-((5-chloropyridin-2-yl)oxy)-2-azabicyclo[2.2.2]octan-2-yl)(3-fluoro-2-(pyrimidin-2-yl)phenyl)methanone], the figures for the inhibitory constant (Ki) in assay [1], in assay [2] and in assay [3] were 452 nM, 8 nM and 7 nM, respectively.
On the same counts, the results for `Cc1cnc(C(=O)N2C[C@@H]3CC[C@H]2[C@H](Oc2ncc(C(F)(F)F)cc2F)C3)c(-c2ncccn2)c1` [Example 283, ((1S,4R,6R)-6-((3-fluoro-5-(trifluoromethyl)pyridin-2-yl)oxy)-2-azabicyclo[2.2.2]octan-2-yl)(5-methyl-3-(pyrimidin-2-yl)pyridin-2-yl)methanone] are over 10000 nM, 27 nM and 21 nM.
Regarding `Cc1ccc(-n2nccn2)c(C(=O)N2C[C@H]3C[C@@H](Nc4ncc(C(F)(F)F)cn4)[C@@H]2C3)n1` [Example 62, (6-methyl-3-(2H-1,2,3-triazol-2-yl)pyridin-2-yl)((1S,4S,6R)-6-((5-(trifluoromethyl)pyrimidin-2-yl)amino)-2-azabicyclo[2.2.1]heptan-2-yl)methanone], the Ki in assay [1] came to 569 nM; in assay [2] it was 19 nM; in assay [3], 28 nM.
For the molecule `O=C(c1cccc2cn[nH]c12)N1C[C@H]2C[C@@H](Nc3ccc(C(F)(F)F)cn3)[C@@H]1C2` [Example 186, (1H-indazol-7-yl)((1S,4S,6R)-6-((5-(trifluoromethyl)pyridin-2-yl)amino)-2-azabicyclo[2.2.1]heptan-2-yl)methanone], the Ki was found to be 2700 nM in assay [1], 151 nM in assay [2] and 123 nM in assay [3].
Take `Cc1nc(C(=O)N2CC3CC(Oc4ccc(C(F)(F)F)cn4)C2C3)c(-c2ccc(F)cc2)s1` (racemic) [Example 5, (R/S)-(5-(4-fluorophenyl)-2-methylthiazol-4-yl)(6-((5-(trifluoromethyl)pyridin-2-yl)oxy)-2-azabicyclo[2.2.1]heptan-2-yl)methanone]: the Ki came to 779 nM in assay [1], 18 nM in assay [2] and 25 nM in assay [3].
For the molecule `O=C(c1ccccc1-n1nccn1)N1C[C@H]2C[C@@H](Nc3ncc(C(F)(F)F)cc3F)[C@@H]1C2` [Example 177, (2-(2H-1,2,3-triazol-2-yl)phenyl)((1S,4S,6R)-6-((3-fluoro-5-(trifluoromethyl)pyridin-2-yl)amino)-2-azabicyclo[2.2.1]heptan-2-yl)methanone], the values for the Ki in assay [1], in assay [2] and in assay [3] were 200 nM, 3 nM and 3 nM, respectively.
In the case of `COc1ccc(C(=O)N2C[C@H]3C[C@@H](Nc4cnc(C(F)(F)F)cn4)[C@@H]2C3)c(-n2nccn2)c1` [Example 197, (4-methoxy-2-(2H-1,2,3-triazol-2-yl)phenyl)((1S,4S,6R)-6-((5-(trifluoromethyl)pyrazin-2-yl)amino)-2-azabicyclo[2.2.1]heptan-2-yl)methanone], the results for the inhibitory constant (Ki) in assay [1], in assay [2] and in assay [3] were 9700 nM, 39 nM and 93 nM, respectively.
With `O=C(c1cc(F)ccc1-n1nccn1)N1C[C@H]2C[C@@H](Oc3cnc(C(F)(F)F)cn3)[C@@H]1C2` [Example 124, (5-fluoro-2-(2H-1,2,3-triazol-2-yl)phenyl)((1S,4R,6R)-6-((5-(trifluoromethyl)pyrazin-2-yl)oxy)-2-azabicyclo[2.2.1]heptan-2-yl)methanone], the Ki in assay [1] came out at 4500 nM; in assay [2], 109 nM; in assay [3], 200 nM.
For `O=C(c1cccc(F)c1-c1ncccn1)N1C[C@@H]2CC[C@H]1[C@H](Oc1cnc(C(F)(F)F)cn1)C2` [Example 74, (3-fluoro-2-(pyrimidin-2-yl)phenyl)((1S,4R,6R)-6-((5-(trifluoromethyl)pyrazin-2-yl)oxy)-2-azabicyclo[2.2.2]octan-2-yl)methanone], the inhibition constant Ki turned out to be 1800 nM in assay [1], 16 nM in assay [2] and 16 nM in assay [3].
For `O=C(c1cccc(F)c1-n1nccn1)N1C[C@H]2C[C@@H](Nc3ncc(C(F)(F)F)cn3)[C@@H]1C2` [Example 223, (3-fluoro-2-(2H-1,2,3-triazol-2-yl)phenyl)((1S,4S,6R)-6-((5-(trifluoromethyl)pyrimidin-2-yl)amino)-2-azabicyclo[2.2.1]heptan-2-yl)methanone], the inhibition constant (Ki) is 619 nM in assay [1], 6 nM in assay [2] and 11 nM in assay [3].
On to `O=C(c1cc(F)ccc1-c1ncccn1)N1C[C@@H]2CC[C@H]1[C@H](Oc1ccc(C(F)(F)F)cn1)C2` [Example 260, (5-fluoro-2-(pyrimidin-2-yl)phenyl)((1S,4R,6R)-6-((5-(trifluoromethyl)pyridin-2-yl)oxy)-2-azabicyclo[2.2.2]octan-2-yl)methanone], for which the figures for the inhibition constant (Ki) in assay [1], in assay [2] and in assay [3] were 294 nM, 10 nM and 11 nM, respectively.
Consider `O=C(c1ccccc1-c1ncc(F)cn1)N1C[C@H]2C[C@@H](Oc3ccc(C(F)(F)F)cn3)[C@@H]1C2` [Example 89, (2-(5-fluoropyrimidin-2-yl)phenyl)((1S,4R,6R)-6-((5-(trifluoromethyl)pyridin-2-yl)oxy)-2-azabicyclo[2.2.1]heptan-2-yl)methanone], for which the Ki is 1100 nM in assay [1], 8 nM in assay [2] and 18 nM in assay [3].
In the case of `O=C(c1ccccc1-c1ncccn1)N1C[C@H]2C[C@@H](Nc3cnc(Cl)cn3)[C@@H]1C2` [Example 215, ((1S,4S,6R)-6-((5-chloropyrazin-2-yl)amino)-2-azabicyclo[2.2.1]heptan-2-yl)(2-(pyrimidin-2-yl)phenyl)methanone], the Ki stood at 435 nM in assay [1], 13 nM in assay [2] and 12 nM in assay [3].
Consider `O=C(c1cccc(F)c1-c1ncccn1)N1C[C@H]2C[C@@H](Oc3ccc(Br)cn3)[C@@H]1C2` [Example 48, ((1S,4R,6R)-6-((5-bromopyridin-2-yl)oxy)-2-azabicyclo[2.2.1]heptan-2-yl)(3-fluoro-2-(pyrimidin-2-yl)phenyl)methanone], for which the Ki stood at 903 nM in assay [1], 5 nM in assay [2] and 4 nM in assay [3].

These data come from US9611277B2 (Janssen Pharmaceutica NV, priority 2013, dated 2017).
